Among the test systems are SNB-75 CNS; HCT-116 colon; SW-620 colon; HOP-62 NSCLC; SK-OV-3 ovarian; OVCAR-5 ovarian; MOLT-4 leukemia; COLO 205 colon; EKVX NSCLC; RPMI-8226 leukemia.
Holding throughout (experiment): inhibition of tumour cell growth, NCI panel, 48 h

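Test compounds were applied to cells in 96-well plates for 48 hours at 5 doses. GI50: concentration for 50% inhibition of growth. TGI: total growth inhibition.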

For the molecule `O=C1CC2OCC=C3CN4CCC5(C(=O)O)C(N1)C2C3CC45` (centres undefined), the TGI with SNB-75 CNS, with HCT-116 colon, with SW-620 colon, with HOP-62 NSCLC, in the test on SK-OV-3 ovarian and in the test with OVCAR-5 ovarian was above 100 µM throughout. The TGI with MOLT-4 leukemia, with COLO 205 colon and with EKVX NSCLC was above 100 µM in each case.
As for `N#CNC1=NCCC(=O)N1CCc1c[nH]c2ccccc12`, the TGI in the test on SNB-75 CNS, in the test on HCT-116 colon, in the test with SW-620 colon, in the test on HOP-62 NSCLC, in the test with SK-OV-3 ovarian and with MOLT-4 leukemia was above 100 µM each time. In addition, the TGI with COLO 205 colon, in the test on EKVX NSCLC and with RPMI-8226 leukemia was above 100 µM throughout.
`CC(CC(=O)Nc1ccc(NC(=O)CC(C)N=NC(N)=O)cc1)N=NC(N)=O` (centres undefined): the TGI with SNB-75 CNS, in the test on HCT-116 colon, in the test with HOP-62 NSCLC, in the test with SK-OV-3 ovarian, with OVCAR-5 ovarian and in the test on MOLT-4 leukemia was above 100 µM throughout. Further, the TGI in the test with COLO 205 colon, in the test on EKVX NSCLC and in the test with RPMI-8226 leukemia was above 100 µM throughout.
On to `CCCCOP1(=O)CC(C)=C(Cl)C(C)(OC)C1` (centres undefined), for which the TGI in the test with SNB-75 CNS, in the test on HCT-116 colon, in the test on SW-620 colon, with HOP-62 NSCLC, with SK-OV-3 ovarian and in the test on MOLT-4 leukemia was above 100 µM in each case. The TGI in the test with COLO 205 colon and with EKVX NSCLC was above 100 µM in each case.
In the case of `N/C(CC(=O)NOC(=O)c1ccccc1)=N/OC(=O)c1ccccc1`, the TGI in the test with HCT-116 colon was above 100 µM; in the test on SW-620 colon, above 100 µM; in the test with HOP-62 NSCLC it was above 100 µM; in the test on SK-OV-3 ovarian, 97.3 µM; in the test with OVCAR-5 ovarian it was above 100 µM; in the test on MOLT-4 leukemia it was 75.9 µM. In addition, the TGI in the test with COLO 205 colon was above 100 µM; in the test on EKVX NSCLC, 77.5 µM; in the test on RPMI-8226 leukemia, above 100 µM.
Take `C[C@H]1CC[C@@H]2[C@@H](C)[C@H]3[C@H](C[C@H]4[C@@H]5CC=C6C[C@@H](O)CC[C@]6(C)[C@H]5CC[C@]34C)N2C1`: the TGI in the test with HCT-116 colon, in the test on SW-620 colon, with HOP-62 NSCLC, in the test on SK-OV-3 ovarian, in the test on OVCAR-5 ovarian and with MOLT-4 leukemia was above 100 µM each time. Besides, the values for the TGI with COLO 205 colon, in the test with EKVX NSCLC and in the test with RPMI-8226 leukemia were 39.2 µM, above 100 µM and above 100 µM, respectively.
For the molecule `COc1ccc2c(c1)C=CC1C2CC[C@]2(C)C(NC(=O)/C=C/c3ccc(O)c(O)c3)CCC12` (some centres undefined), the GI50 with SNB-75 CNS was 6.01 µM; with HCT-116 colon it was 4.49 µM; in the test with SW-620 colon, 9.93 µM; with HOP-62 NSCLC, 1.21 µM; with OVCAR-5 ovarian it was 20.1 µM; in the test with MOLT-4 leukemia it was 5.56 µM. Also, the GI50 was 2.61 µM in the test with COLO 205 colon, 18.8 µM with EKVX NSCLC and 7.98 µM in the test with RPMI-8226 leukemia. Further, the TGI was found to be 20.5 µM in the test with SNB-75 CNS; 17.4 µM with HCT-116 colon; 55.2 µM in the test with SW-620 colon; 7.59 µM in the test with HOP-62 NSCLC; 38.9 µM with OVCAR-5 ovarian; 22.7 µM in the test with MOLT-4 leukemia. The TGI was determined as 7.75 µM with COLO 205 colon, 56.5 µM with EKVX NSCLC and 39.1 µM in the test on RPMI-8226 leukemia.
As for `CC(=O)[O][Hg][c]1s[c]([Hg][O]C(C)=O)[c]([Hg][O]C(C)=O)[c]1[Hg][O]C(C)=O`, the GI50 is 4.91 µM in the test on SNB-75 CNS; 7.12 µM with HCT-116 colon; 6.51 µM in the test with SW-620 colon; 4.91 µM in the test with HOP-62 NSCLC; 2.34 µM in the test with SK-OV-3 ovarian; 2.26 µM with MOLT-4 leukemia. Also, the values for the GI50 in the test with COLO 205 colon and in the test on RPMI-8226 leukemia were 15.9 µM and 7.54 µM, respectively. Further, the TGI with SNB-75 CNS is 25.4 µM; in the test with HCT-116 colon it was above 100 µM; with HOP-62 NSCLC, 16.5 µM; in the test with SK-OV-3 ovarian, 9.2 µM; in the test with MOLT-4 leukemia it was 17.5 µM; in the test on COLO 205 colon, 38.6 µM. Moreover, in the test with RPMI-8226 leukemia, the TGI was above 100 µM.
Take `CC1=CC(=O)N2C(OC[C@@H]2c2ccccc2)O1` (some centres undefined): the TGI in the test with SNB-75 CNS, in the test with HCT-116 colon, with SW-620 colon, in the test on HOP-62 NSCLC, with SK-OV-3 ovarian and in the test on MOLT-4 leukemia was above 100 µM each time. Besides, the TGI with COLO 205 colon, in the test with EKVX NSCLC and in the test on RPMI-8226 leukemia was above 100 µM each time.
With `COC(=O)C(/C(=N\O)C(=O)Nc1ccc(Br)cc1)c1nc2ccccc2[nH]c1=O` (centres undefined), the TGI in the test with SNB-75 CNS was above 100 µM; in the test with HCT-116 colon, above 100 µM; in the test on HOP-62 NSCLC, 92.6 µM; with SK-OV-3 ovarian, above 100 µM; in the test with OVCAR-5 ovarian, above 100 µM; in the test on MOLT-4 leukemia, 57.5 µM. Further, the TGI in the test with COLO 205 colon is 37.5 µM; in the test on EKVX NSCLC it was above 100 µM; in the test with RPMI-8226 leukemia it was 61.6 µM.
In the case of `C=CCO[C@H]1CC[C@@]2(C)C(CC[C@]3(C)C2CC=C2[C@@H]4[C@@H](C)C(C)CC[C@]4(C(=O)O)CCC23C)C1(C)C` (some centres undefined), the TGI with SNB-75 CNS amounted to 30.2 µM; in the test with HCT-116 colon, 25.5 µM; in the test on SW-620 colon, 35.4 µM; in the test on HOP-62 NSCLC it was 41 µM; in the test with SK-OV-3 ovarian, 31.7 µM; with COLO 205 colon, 32.4 µM. In the test with EKVX NSCLC, this molecule gave a TGI of 38.1 µM.
Take `COC(=O)C#CC(N)=O`: the TGI with SNB-75 CNS was above 100 µM; with HCT-116 colon, above 100 µM; with SW-620 colon it was above 54.8 µM; in the test on HOP-62 NSCLC, above 100 µM; in the test on SK-OV-3 ovarian it was above 100 µM; with OVCAR-5 ovarian it was above 100 µM. Further, the TGI with MOLT-4 leukemia is 62.6 µM; in the test on COLO 205 colon it was above 100 µM; in the test on EKVX NSCLC, above 100 µM.
Turning to `C#C[C@@H](CCCC)OC(=O)N[C@H](C)c1ccccc1`, the TGI with SNB-75 CNS is 97.5 µM; in the test on HCT-116 colon, above 100 µM; with SW-620 colon it was above 100 µM; with HOP-62 NSCLC, above 100 µM; in the test on SK-OV-3 ovarian it was above 100 µM; with OVCAR-5 ovarian, above 100 µM. The results for the TGI with MOLT-4 leukemia, in the test on EKVX NSCLC and in the test with RPMI-8226 leukemia were above 100 µM, above 100 µM and 87.6 µM, respectively.

The values are drawn from PubChem BioAssay (NCI).
